Laboratory results reported in patent publication US11440939B2, “Anticancer peptides” (IDP DISCOVERY PHARMA, S.L., priority 2017, dated 2022).
Numbered stars: 1 amine (or outer) side, 2 acyl side, 3 side chain; on linkers, the order of the positions; unused ones are H or OH. Bridge positions count the residues as written; N and C are the ends. Square brackets hold non-standard residues; d marks the D form. Peptide text beside a SMILES is read from it. ξ: configuration not given here. ξαMeNle(6-ylidene) = CC(CCCC=[*:3])(N[*:1])C(=O)[*:2]; X1 = CC(CCCCCCC=[*:3])(N[*:1])C(=O)[*:2]

Assays:
Assay type in all cases: cell-based
[1] = test system: NCI-H69; settings: 72 h
Method: NCI-69, (small cell lung cancer, SCLC), ATCC-HTB-119;
(§1) Cell line MCF-7 was cultured in incubator under CO2 (6%) at 37° C. in DMEM high glucose (Dulbecco's Modified Eagle Solution, Gibco-BRL 31966-21) medium with 10% fetal bovine serum inactivated (FBS) (Gibco-BRL 10106-169). Cell lines HL-60, NCI-H524, NCI-H526, NCI-H69, NCI-H82, NCI-H187 and H5B were cultured in an incubator at 37° C. in RPMI-1640 (Sigma R8758) medium with 10% of fetal bovine serum inactivated (FBS) and 2 mM glutamine (Sigma G7513). Cell line NCI-H510A was cultured in incubator in F12K medium with 10% of fetal bovine serum inactivated (FBS). […]
(§2) During the amplification step and the assays, adherent cells were rinsed with DPBS (Dulbecco's Phosphate Buffered Saline, Sigma D1283) three times and afterward treated for 5 minutes with trypsin ([…]) (Gibco-BRL, 15400054) in solution of DPBS at 37° C., and, once detached, transferred in the culturing medium. […] Cells were counted in a Neubauer chamber after labelling with Tripan-Blue. […]
(§3) Cells were incubated during 72 h in incubator under CO2 atmosphere at 37° C. Cell viability was measured by means of MTT (3-(4,5-dimethylthiazol-2-yl)-2,5-diphenyltetrazolium bromide) assay, Alamar Blue® (Biosource DAL1100) and Hexosaminidase activity test, consecutively, following manufacturer instructions.
(§4) MTT: 1. […] Absorbance at 570 nm was finally measured. […]

[2] = test system: MCF-7
Method: MCF-7, epithelial (breast cancer), ECACC: 86012803;
as §1, §2, §3, §4

[3] = test system: GBM-18
Method: GMB-18, epithelial (glioblastoma, GMB), from surgical specimens from patients;
as §1
During the amplification step and the assays, adherent cells were rinsed with DPBS (Dulbecco's Phosphate Buffered Saline, Sigma D1283) three times and afterward treated for 5 minutes with trypsin ([…]) (Gibco-BRL, 15400054) in solution of DPBS at 37° C., and, once detached, transferred in the culturing medium. […] Cells were counted in a Neubauer chamber after labelling with Tripan-Blue.
as §3, with “instructions. […]” for “instructions.”

[4] = Hepatotoxicity assay, trypan blue exclusion, 24 h; settings: female, primary human hepatocytes, human hepatocytes, 24 h
Source text: (§5) NCI-510A, epithelial (small cell lung cancer, SCLC), ATCC-HBT-124; and Hepatocytes (normal liver), from a donor was provided by Foundation DTI-Donation & Transplantation Institute from surgical wastes and from organs not suitable for transplantation
(§6) Human liver from a donor was subjected to hepatocyte isolation by using a two-step tissue microperfusion technique taking maximum care to avoid anoxia before cannulation, since hepatocytes are cells highly sensitive to oxygen levels. An initial anoxic state could result in a low viability of the cells, and will later affect their metabolic capacity in the culture. Briefly, liver tissue was cannulated by using the accessible vessels with a 1 mm-diameter needle. A balanced salt solution was injected to clean the organ by using a peristaltic pump adjusted to a flow rate of 18-20 ml/min. After washing, a solution containing collagenase was added for liver disintegration. The cell suspension obtained using this process was filtered and centrifuged and, after a couple of washings to remove collagenase, cells were re-suspended in culture medium Ham's F-12/William (1:1) medium supplemented with 2 mM glutamine, […] sodium selenite, 2% newborn calf serum, 50 mU/ml penicillin, 50 μg/ml streptomycin, 0.1% bovine serum albumin, 1.68 mM NAME, 26 mM sodium bicarbonate, 25 μg/ml transferrin, 65.5 μM ethanolamine, 7.2 μM linoleic acid, 17.5 mM glucose, 6.14 mM ascorbic acid and 10 nM insulin.
(§7) After resuspension, a cell aliquot was removed and viability was determined by cell counting using the trypan blue exclusion method. Trypan blue uptake is the result of cell membrane alteration and in consequence of cell death. Thus, to quantify cell viability, 0.4% trypan blue in saline was added to the cells and these were immediately loaded in a Neubauer chamber. Viable cells were counted in 5 different fields under the optical microscope as non-blue cells. % Viability=Number of non-blue cells×100/Number of total cells Viability and Hepatoxicity Assay
(§8) Human hepatocytes isolated and re-suspended as described before were seeded at 100,000 viable cells/well on 96 collagen-coated plates in order to assess compound's cytotoxicity. After 1 hour in culture, medium was renewed to eliminate cell debris. Cultured human hepatocytes were allowed to stay in culture for 24 hours prior performing the experiments. After 24 h, the compounds to be tested were added to calculate the dose/response curve at the starting concentration of 400 μM with serial dilutions. Each experiment was performed in triplicate. Cells were incubated during 24 h in incubator under CO2 atmosphere at 37° C.
(§9) The viability was determined by cell counting using the trypan blue exclusion method. % Viability=Number of non-blue cells×100/Number of total cells Statistics

[5] = test system: Human hepatocytes; assay: Hepatotoxicity assay, trypan blue exclusion, 24 h; settings: dose of 4 and 14 μM
Source text: as §5, §6, §7, §8, §9

For `CC(C)C[C@H](NC(=O)[C@H](CCCCN)NC(=O)[C@@H](NC(=O)[C@@H](N)CCCNC(=N)N)C(C)C)C(=O)N[C@H](C(=O)N[C@@H](CC(N)=O)C(=O)N[C@@H](CC(C)C)C(=O)NC1(C)CCCCCCC=CCCCC(C)(C(=O)N[C@H](C(=O)N2CCC[C@H]2C(N)=O)C(C)C)NC(=O)[C@H](CCC(=O)O)NC(=O)[C@H](CCCNC(=N)N)NC(=O)[C@H](CC(C)C)NC(=O)[C@H]([C@@H](C)O)NC(=O)[C@H](C)NC(=O)[C@H](Cc2ccccc2)NC1=O)C(C)C` (stereo partly drawn) [H14] (H-RVKLVNL[X1]FATLRE[ξαMeNle(6-ylidene)]VP-NH2; staple 8-15; N-terminus and C-terminus assumed), the EC50 [1] was roughly 7 µM, the EC50 [2] was roughly 9 µM and the EC50 [3] was roughly 4 µM. The viability at 24 h, 4 µM ([4]; H14 4 μM) was 113%, the viability at 24 h, 14 µM ([4]; H14 14 μM) was 119% and the “toxicity for normal hepatocytes (in words)” value [5] was “not toxic”.
